Read-outs that look alike come from different tables or passages of the source.
What was measured:
MmCLK1 = target: T1, MmCLK1 (Mus musculus, UniProt P22518); assay: ADP-Glo kinase assay; assay type: biochemical
T1 construct: host or cells: bacteria

Hs_GSK3β = target: T2, Hs_GSK3β (Homo sapiens, UniProt P49841); assay: ADP-Glo kinase assay, primary screen; assay type: biochemical; conditions: n=2, read-out: % of residual activity Hs_GSK3β
T2 construct: host or cells: Sf9 insect cells (baculovirus)

[1] = cytotoxic assay, nuclei count (Hoechst, HCS); assay type: cell-based; conditions: human, 48 h treatment
Method: (§1) To complete our study, we performed a cytotoxicity screening of the 15 molecules, investigating 7 representative cancer cell lines. The compound’s effect on cell viability was evaluated on Huh-7 (hepatocellular carcinoma), CaCo2, HCT-116 (colorectal adenocarcinoma), MCF7, MDA-MB231, MDA-MB468 (breast carcinoma), PC3 (prostate carcinoma) and NCI-H727 (lung carcinoid). Human skin fibroblasts were used as reference for non-cancerous cells. Roscovitine, Doxorubicin and Taxol were used as positive controls. The cells were treated for 48 h with 25 µM compounds and fixed in cooled 90% ethanol/5% acetic acid for 20 min. The nuclei were stained with Hoechst 33342 and counted using HCS technology.
(§2) HuH7, CaCo-2, MDA-MB-231, HCT116, PC3, MCF7 and NCI-H727 cancer cell lines were obtained from the ECACC collection (Porton Down, UK). Cells were grown at 37 °C, 5% CO2 in ECACC recommended media: DMEM for HuH7, MDA-MB-231 and fibroblast, EMEM for MCF7and CaCo-2, McCoy’s for HCT116 and RPMI for PC3 and NCI-H727. All culture media were supplemented with 10% of FBS, 1% of penicillin-streptomycin and 2 mM glutamine.
(§3) Chemicals were solubilized in DMSO at a concentration of 10 mM (stock solution) and diluted in culture medium to the desired final concentrations.
[…] Cells were plated in 96 wells plates (4000 cells/well). Twenty-four hours after seeding, cells were exposed to chemicals. After 48 h of treatment, cells were washed in PBS and fixed in cooled 90% ethanol/5% acetic acid for 20 min and the nuclei were stained with Hoechst 33342 (B2261 Sigma). Image acquisition and analysis were performed using a CellomicsArrayScan VTI/HCS Reader (ThermoScientific, Waltham, MA, USA). The survival percentages were calculated as the percentage of cell number after compound treatment over cell number after DMSO treatment.

Hs_PIM1 = target: T3, Hs_PIM1 (Homo sapiens, UniProt P11309); assay: ADP-Glo kinase assay, primary screen; assay type: biochemical; conditions: n=2, read-out: % of residual activity Hs_PIM1
T3 construct: host or cells: Sf9 insect cells (baculovirus)

Hs_CDK9/CyclinT = target: T4, Hs_CDK9/CyclinT (Homo sapiens, UniProt P50750); assay: ADP-Glo kinase assay, primary screen; assay type: biochemical; conditions: n=2, read-out: % of residual activity Hs_CDK9/CyclinT
T4 construct: host or cells: Sf9 insect cells (baculovirus)

[2] = cytotoxic assay, nuclei count (Hoechst, HCS); assay type: cell-based; conditions: human, HuH7 cells (hepatocellular carcinoma); 48 h treatment; read-out: Cytotoxic studies IC50 HuH7
[3] = cytotoxic assay, nuclei count (Hoechst, HCS); assay type: cell-based; conditions: human, MDA-MB-231 cells (breast carcinoma); 48 h treatment; read-out: Cytotoxic studies IC50 MDA-MB-231
[4] = cytotoxic assay, nuclei count (Hoechst, HCS); assay type: cell-based, human; conditions: human, human skin fibroblasts (non-cancerous reference cells); 48 h treatment; some cells add low/moderate/high amplitude; read-out: Cytotoxic studies IC50 Fibroblasts
Method: as §1, §2, §3
(§4) The cytotoxic assay of chemical was performed at 25 µM. Cells were plated in 96 wells plates (4000 cells/well). Twenty-four hours after seeding, cells were exposed to chemicals. After 48 h of treatment, cells were washed in PBS and fixed in cooled 90% ethanol/5% acetic acid for 20 min and the nuclei were stained with Hoechst 33342 (B2261 Sigma). Image acquisition and analysis were performed using a CellomicsArrayScan VTI/HCS Reader (ThermoScientific, Waltham, MA, USA). The survival percentages were calculated as the percentage of cell number after compound treatment over cell number after DMSO treatment.

Human skin fibroblasts = assay: cytotoxic assay, nuclei count (Hoechst, HCS); assay type: cell-based; conditions: summary of Table S2
Method: as §1, §2, §3, §4

Hs_CDK5/p25 = target: T5, Hs_CDK5/p25 (Homo sapiens, UniProt Q00535); assay: ADP-Glo kinase assay, primary screen; assay type: biochemical; conditions: n=2, read-out: % of residual activity Hs_CDK5/p25
T5 construct: host or cells: bacteria

HsCLK1 = target: T6, HsCLK1 (Homo sapiens, UniProt P49759); assay: ADP-Glo kinase assay; assay type: biochemical
T6 construct: host or cells: Sf9 insect cells (baculovirus)

[5] = cytotoxic assay, nuclei count (Hoechst, HCS); assay type: cell-based; conditions: human, MCF7 cells (breast carcinoma); 48 h treatment; read-out: Cytotoxic studies IC50 MCF7
Method: as §1, §2, §3, §4

HsDYRK1A = target: T7, HsDYRK1A (Homo sapiens, UniProt Q13627); assay: ADP-Glo kinase assay; assay type: biochemical; conditions: n=2, read-out: % of residual activity Hs_DYRK1A
T7 construct: host or cells: Sf9 insect cells (baculovirus)

Hs_CK1ε = target: T8, Hs_CK1ε (Homo sapiens, UniProt P49674); assay: ADP-Glo kinase assay, primary screen; assay type: biochemical; conditions: n=2, read-out: % of residual activity Hs_CK1ε
T8 construct: host or cells: Sf9 insect cells (baculovirus)

Rn_DYRK1A = target: T9, Rn_DYRK1A (Rattus norvegicus, UniProt Q63470); assay: ADP-Glo kinase assay, primary screen; assay type: biochemical; conditions: n=2, read-out: % of residual activity Rn_DYRK1A
T9 construct: host or cells: bacteria

Hs_HASPIN = target: T10, Hs_HASPIN (Homo sapiens, UniProt Q8TF76); assay: ADP-Glo kinase assay, primary screen; assay type: biochemical; conditions: n=2, read-out: % of residual activity Hs_HASPIN
T10 construct: host or cells: bacteria
T10 sequence (Q8TF76 1-798): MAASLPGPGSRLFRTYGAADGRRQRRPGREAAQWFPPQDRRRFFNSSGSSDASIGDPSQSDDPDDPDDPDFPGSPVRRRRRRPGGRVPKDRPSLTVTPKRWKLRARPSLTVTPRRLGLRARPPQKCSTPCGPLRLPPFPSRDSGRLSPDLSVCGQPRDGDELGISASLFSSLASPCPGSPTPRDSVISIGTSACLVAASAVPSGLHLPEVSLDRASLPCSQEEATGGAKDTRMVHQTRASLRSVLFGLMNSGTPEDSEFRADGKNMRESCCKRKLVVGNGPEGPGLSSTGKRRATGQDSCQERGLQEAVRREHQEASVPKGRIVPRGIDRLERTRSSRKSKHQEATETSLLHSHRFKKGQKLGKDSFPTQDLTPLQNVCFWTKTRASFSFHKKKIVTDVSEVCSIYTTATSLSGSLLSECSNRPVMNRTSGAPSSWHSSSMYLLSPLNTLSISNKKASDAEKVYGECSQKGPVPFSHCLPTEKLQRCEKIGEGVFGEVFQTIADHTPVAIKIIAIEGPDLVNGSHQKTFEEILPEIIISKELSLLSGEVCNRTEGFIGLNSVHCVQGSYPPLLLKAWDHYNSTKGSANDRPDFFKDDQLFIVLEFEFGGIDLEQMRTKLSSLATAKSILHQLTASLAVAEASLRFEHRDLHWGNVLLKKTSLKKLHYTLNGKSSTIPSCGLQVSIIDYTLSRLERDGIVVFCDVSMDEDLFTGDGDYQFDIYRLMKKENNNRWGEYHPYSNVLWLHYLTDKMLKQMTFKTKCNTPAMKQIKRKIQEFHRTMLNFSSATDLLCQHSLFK

T1 sequence (P22518 whole entry): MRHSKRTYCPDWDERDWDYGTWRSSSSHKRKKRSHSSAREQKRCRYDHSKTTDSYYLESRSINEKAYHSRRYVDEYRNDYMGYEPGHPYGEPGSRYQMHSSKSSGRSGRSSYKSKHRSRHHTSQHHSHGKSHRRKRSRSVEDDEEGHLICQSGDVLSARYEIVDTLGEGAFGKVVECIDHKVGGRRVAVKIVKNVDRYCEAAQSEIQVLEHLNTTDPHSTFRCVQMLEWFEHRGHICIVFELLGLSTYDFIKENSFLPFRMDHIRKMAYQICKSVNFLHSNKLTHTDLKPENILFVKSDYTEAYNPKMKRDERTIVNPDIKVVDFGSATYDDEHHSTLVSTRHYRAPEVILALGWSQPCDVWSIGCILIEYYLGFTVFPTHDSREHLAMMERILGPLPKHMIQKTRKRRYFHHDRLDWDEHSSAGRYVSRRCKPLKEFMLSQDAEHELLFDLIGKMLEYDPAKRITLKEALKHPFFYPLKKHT
T6 sequence (P49759 whole entry): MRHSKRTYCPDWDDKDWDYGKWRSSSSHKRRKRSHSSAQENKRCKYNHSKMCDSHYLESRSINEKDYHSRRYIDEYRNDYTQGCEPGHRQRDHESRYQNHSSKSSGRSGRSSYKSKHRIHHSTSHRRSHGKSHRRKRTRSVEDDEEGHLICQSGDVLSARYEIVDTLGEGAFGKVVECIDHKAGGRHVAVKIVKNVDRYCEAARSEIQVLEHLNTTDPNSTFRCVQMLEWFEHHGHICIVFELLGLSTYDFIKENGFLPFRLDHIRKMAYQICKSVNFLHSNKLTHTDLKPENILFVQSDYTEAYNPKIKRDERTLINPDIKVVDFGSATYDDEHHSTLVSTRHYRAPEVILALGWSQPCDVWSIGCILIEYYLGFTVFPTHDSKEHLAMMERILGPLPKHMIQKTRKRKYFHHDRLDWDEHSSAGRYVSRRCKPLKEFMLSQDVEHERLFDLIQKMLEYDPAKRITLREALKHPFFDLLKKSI
T8 sequence (P49674 whole entry): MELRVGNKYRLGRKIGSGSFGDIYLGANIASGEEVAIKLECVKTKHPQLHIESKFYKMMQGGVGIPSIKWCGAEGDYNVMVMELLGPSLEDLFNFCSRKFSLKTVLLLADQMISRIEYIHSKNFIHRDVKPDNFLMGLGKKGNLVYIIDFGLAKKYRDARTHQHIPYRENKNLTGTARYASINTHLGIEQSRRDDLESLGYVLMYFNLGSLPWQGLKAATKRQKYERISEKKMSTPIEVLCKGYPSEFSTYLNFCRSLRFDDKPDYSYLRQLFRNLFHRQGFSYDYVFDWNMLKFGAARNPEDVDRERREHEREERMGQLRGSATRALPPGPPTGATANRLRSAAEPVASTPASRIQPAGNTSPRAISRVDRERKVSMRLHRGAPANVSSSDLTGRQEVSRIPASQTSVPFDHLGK
T4 sequence (P50750 whole entry): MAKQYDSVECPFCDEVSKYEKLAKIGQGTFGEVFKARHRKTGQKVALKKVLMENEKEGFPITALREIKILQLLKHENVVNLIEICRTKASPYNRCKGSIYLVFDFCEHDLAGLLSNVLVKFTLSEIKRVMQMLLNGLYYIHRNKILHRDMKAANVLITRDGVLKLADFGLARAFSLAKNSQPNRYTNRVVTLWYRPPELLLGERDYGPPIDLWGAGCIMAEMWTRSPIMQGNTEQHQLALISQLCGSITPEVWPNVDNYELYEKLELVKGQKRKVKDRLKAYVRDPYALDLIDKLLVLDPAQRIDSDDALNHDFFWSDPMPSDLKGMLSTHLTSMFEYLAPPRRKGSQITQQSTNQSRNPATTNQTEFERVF
T4 sequence (O60563 whole entry partner): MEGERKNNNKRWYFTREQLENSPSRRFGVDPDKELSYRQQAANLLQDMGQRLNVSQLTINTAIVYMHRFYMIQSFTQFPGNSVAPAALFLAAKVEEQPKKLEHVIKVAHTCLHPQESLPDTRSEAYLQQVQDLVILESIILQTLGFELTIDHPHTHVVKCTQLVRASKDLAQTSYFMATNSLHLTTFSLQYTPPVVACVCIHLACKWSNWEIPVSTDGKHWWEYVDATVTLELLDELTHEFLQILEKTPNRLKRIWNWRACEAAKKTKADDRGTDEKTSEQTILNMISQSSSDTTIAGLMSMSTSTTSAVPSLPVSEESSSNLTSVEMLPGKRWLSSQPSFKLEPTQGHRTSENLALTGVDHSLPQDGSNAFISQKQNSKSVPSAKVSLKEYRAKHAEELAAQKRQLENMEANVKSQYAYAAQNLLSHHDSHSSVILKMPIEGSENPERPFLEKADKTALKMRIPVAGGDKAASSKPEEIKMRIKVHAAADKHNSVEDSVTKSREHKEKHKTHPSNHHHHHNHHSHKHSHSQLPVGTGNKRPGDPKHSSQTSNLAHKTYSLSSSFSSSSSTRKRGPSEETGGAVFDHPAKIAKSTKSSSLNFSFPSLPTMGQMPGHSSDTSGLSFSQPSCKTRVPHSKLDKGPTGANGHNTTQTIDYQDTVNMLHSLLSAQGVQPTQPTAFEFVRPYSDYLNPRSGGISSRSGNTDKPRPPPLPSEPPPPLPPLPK
T5 sequence (Q00535 whole entry): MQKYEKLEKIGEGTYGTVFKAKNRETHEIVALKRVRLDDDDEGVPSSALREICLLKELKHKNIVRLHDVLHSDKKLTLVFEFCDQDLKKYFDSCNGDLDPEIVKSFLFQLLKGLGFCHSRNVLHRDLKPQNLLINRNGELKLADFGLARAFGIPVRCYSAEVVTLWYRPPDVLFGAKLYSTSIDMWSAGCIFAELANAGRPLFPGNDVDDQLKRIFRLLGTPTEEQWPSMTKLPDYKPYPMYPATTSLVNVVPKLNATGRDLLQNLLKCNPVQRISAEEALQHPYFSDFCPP
T5 sequence (Q15078 99-307 partner limits assumed): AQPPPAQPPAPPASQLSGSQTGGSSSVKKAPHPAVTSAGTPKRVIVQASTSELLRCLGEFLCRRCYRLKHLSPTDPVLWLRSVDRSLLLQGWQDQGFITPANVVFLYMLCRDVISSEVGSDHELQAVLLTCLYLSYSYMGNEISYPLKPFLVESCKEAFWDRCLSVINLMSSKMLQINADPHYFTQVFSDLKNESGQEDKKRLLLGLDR
T2 sequence (P49841 whole entry): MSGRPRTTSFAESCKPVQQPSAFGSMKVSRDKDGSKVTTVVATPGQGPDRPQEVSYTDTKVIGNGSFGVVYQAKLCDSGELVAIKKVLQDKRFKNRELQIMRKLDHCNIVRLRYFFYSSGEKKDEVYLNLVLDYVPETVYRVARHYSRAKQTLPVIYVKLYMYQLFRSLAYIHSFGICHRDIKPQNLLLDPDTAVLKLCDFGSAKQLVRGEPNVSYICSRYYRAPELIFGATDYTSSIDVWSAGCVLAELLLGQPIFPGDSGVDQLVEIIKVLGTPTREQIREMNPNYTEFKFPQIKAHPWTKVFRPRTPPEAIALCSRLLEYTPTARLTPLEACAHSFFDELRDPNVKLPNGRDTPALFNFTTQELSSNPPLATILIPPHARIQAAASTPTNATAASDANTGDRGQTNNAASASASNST
T3 sequence (P11309 whole entry): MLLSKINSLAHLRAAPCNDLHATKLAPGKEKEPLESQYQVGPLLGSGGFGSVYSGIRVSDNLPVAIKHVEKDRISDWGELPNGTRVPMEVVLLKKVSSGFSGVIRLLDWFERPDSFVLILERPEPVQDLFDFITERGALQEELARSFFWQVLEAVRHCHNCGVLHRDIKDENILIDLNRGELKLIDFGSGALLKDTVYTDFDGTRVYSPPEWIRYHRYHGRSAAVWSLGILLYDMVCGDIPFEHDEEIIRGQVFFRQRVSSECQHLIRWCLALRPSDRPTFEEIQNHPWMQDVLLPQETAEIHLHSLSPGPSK

With Cc1ccc(-n2cc(COc3cccc4cnc(Nc5ccccc5)nc34)nn2)c([N+](=O)[O-])c1 [7a, N-Phenyl-8-((1-(4-methyl-2-nitrophenyl)-1H-1,2,3-triazol-4-yl)methoxy)quinazolin-2-amine] the remaining activity at 1 µM (MmCLK1; 1 µM, n=2, read-out: % of residual activity Mm_CLK1) was 43%, the remaining activity at 10 µM (MmCLK1; 10 µM, n=2, read-out: % of residual activity Mm_CLK1) was 30% and the IC50 (MmCLK1; mouse CLK1 orthologue, read-out: IC50 MmCLK1) was 0.466 µM. It also gave a remaining activity at 1 µM (Hs_GSK3β; 1 µM) of 87%, a remaining activity at 10 µM (Hs_GSK3β; 10 µM) of 70% and an IC50 at 48 h ([1]; HCT116 cells (colorectal adenocarcinoma), read-out: Cytotoxic studies IC50 HCT116) of 7 µM. It also gave an IC50 at 48 h ([1]; MDA-MB-468 cells (breast carcinoma), read-out: Cytotoxic studies IC50 MDA-MB-468) greater than 25 µM, a remaining activity at 1 µM (Hs_PIM1; 1 µM) of 81% and a remaining activity at 10 µM (Hs_PIM1; 10 µM) of 60%. It also gave a remaining activity at 1 µM (Hs_CDK9/CyclinT; 1 µM) of 55%, a remaining activity at 10 µM (Hs_CDK9/CyclinT; 10 µM) of 45% and an IC50 at 48 h [2] of 3 µM. The IC50 at 48 h [3] was 9 µM, the IC50 at 48 h [4] was greater than 25 µM and the “toxicity towards fibroblasts” value (Human skin fibroblasts) was “non-toxic”. The remaining activity at 1 µM (Hs_CDK5/p25; 1 µM) was no less than 100%, the remaining activity at 10 µM (Hs_CDK5/p25; 10 µM) was 65% and the IC50 (HsCLK1; 10 µM ATP, duplicate, read-out: IC50 HsCLK1) was 1.1 µM. For the same compound, the “times less active than DB18 on human CLK1” value (HsCLK1; ratio of IC50 1100 and […] nM) was 100 times, the IC50 at 48 h [5] was 7 µM and the remaining activity at 1 µM (HsDYRK1A; 1 µM) was no less than 100%. For the same compound, the remaining activity at 10 µM (HsDYRK1A; 10 µM) was 92%, the remaining activity at 1 µM (Hs_CK1ε; 1 µM) was 93% and the remaining activity at 10 µM (Hs_CK1ε; 10 µM) was 89%. For the same compound, the remaining activity at 1 µM (Rn_DYRK1A; 1 µM) was 56%, the remaining activity at 10 µM (Rn_DYRK1A; 10 µM) was 90% and the remaining activity at 1 µM (Hs_HASPIN; 1 µM) was 95%. It also gave a remaining activity at 10 µM (Hs_HASPIN; 10 µM) of 94%.

— paper PMC9571063 (Molecules, 2022)
